Assay results published in patent US20120149026A1, “INSULIN RESISTANCE MARKER” (SHIMADZU CORPORATION, priority 2009, published 2012).

B1: proepithelin protein: epithelin precursor protein having seven kinds of epithelin domains; purchased from AdipoGen, Inc. (protein)
chain: MWTLVSWVALTAGLVAGTRCPDGQFCPVACCLDPGGASYSCCRPLLDKWPTTLSRHLGGPCQVDAHCSAGHSCIFTVSGTSSCCPFPEAVACGDGHHCCPRGFHCSADGRSCFQRSGNNSVGAIQCPDSQFECPDFSTCCVMVDGSWGCCPMPQASCCEDRVHCCPHGAFCDLVHTRCITPTGTHPLAKKLPAQRTNRAVALSSSVMCPDARSRCPDGSTCCELPSGKYGCCPMPNATCCSDHLHCCPQDTVCDLIQSKCLSKENATTDLLTKLPAHTVGDVKCDMEVSCPDGYTCCRLQSGAWGCCPFTQAVCCEDHIHCCPAGFTCDTQKGTCEQGPHQVPWMEKAPAHLSLPDPQALKRDVPCDNVSSCPSSDTCCQLTSGEWGCCPIPEAVCCSDHQHCCPQGYTCVAEGQCQRGSEIVAGLEKMPARRASLSHPRDIGCDQHTSCPVGQTCCPSLGGSWACCQLPHAVCCEDRQHCCPAGYTCNVKARSCEKEVVSAQPATFLARSPHVGVKDVECGEGHFCHDNQTCCRDNRQGWACCPYRQGVCCADRRHCCPAGFRCAARGTKCLRREAPRWDAPLRDPALRQLL
modifications: human

Legend:
Type in all cases: cell-based, mouse
proepithelin (aa297-309) = assay: Expression variation analysis of proepithelin protein by NBS method in insulin resistance-induced adipocytes; details: matured 3T3-L1 adipocytes; 4 ng/mL TNFα for four days or 20 nM dexamethazone for eight days; p-value <0.05
Description: Mouse 3T3-L1 cells (ATCC No. CCL-92.1.) were added with Dulbecco's modified Eagle's medium—low glucose (Wako Pure Chemical Industries, Ltd.), 10% bovine serum (GIBCO BRL), and a penicillin/streptomycin solution (GIBCO BRL), and cultured at 37° C. in 5% carbon dioxide.
After reaching confluent, the cells were further cultured for two days. Then the medium was replaced by a differentiation inducing medium. As the differentiation inducing medium, Dulbecco's modified Eagle's medium—high glucose (Wako Pure Chemical Industries, Ltd.) added with 10% fetal bovine serum, a penicillin/streptomycin solution (GIBCO BRL), 0.5 mM 1-methyl-3-isobutylxanthine, 1 μM dexamethazone, and 5 μg/mL insulin was used.
After three days, the medium was replaced by Dulbecco's modified Eagle's medium—high glucose (Wako Pure Chemical Industries, Ltd.), 10% fetal bovine serum, a penicillin/streptomycin solution (GIBCO BRL), and 5 μg/mL insulin, and cultured for two days. […]
For the obtained digests, a treatment was conducted according to the protocol of the NBS labeling kit, and the NBS-labeled peptide was concentrated. […] Comparative quantification analysis between 12C-NBS-labeled peptide and 13C-NBS-labeled peptide was conducted from the results obtained by automatic analysis of MALDI-TOF MS (AXIMA-CFR Plus; SHIMADZU CORPORATION) by using pair peak analyzing software (TWIP). […]

proepithelin protein = assay: Analysis of proepithelin protein by Western blotting in insulin resistance-induced adipocytes; details: matured 3T3-L1 adipocytes; for expression amount of proepithelin protein relative to GADPH, increase versus control: 4 ng/mL TNFα for four days or 20 nM dexamethazone for eight days, p-value <0.05
Description: Using the matured adipocyte at the eighth or later day after the differentiation inducing treatment, the cells were cultured in an adipocyte maintenance medium added with 20 nM dexamethazone for eight days to induce insulin resistance, and an adipocyte in which insulin resistance was induced by dexamethazone was obtained. On the other hand, using the matured adipocyte at the eighth or later day after the differentiation inducing treatment, the cells were cultured for four days in an adipocyte maintenance medium added with 4 ng/mL TNFα to induce insulin resistance, and an adipocyte in which insulin resistance was induced by TNFα was obtained.
A matured adipocyte in which insulin resistance was induced by the method of Reference Example 2 was solubilized in a TNE buffer (1% (w/w) Nonidet P-40, 150 mM sodium chloride, 20 mM Tris-hydrochloride (pH 7.4), 2 mM EDTA, 10 μg/mL leupeptin, 10 μg/mL aprotinine, 5 mM mercaptoethanol, 1 mM: PMSF, 1 mM Na3VO4, 10 μM sodium molybdate, and 50 mM sodium fluoride), and a protein was extracted. The extracted protein was separated by SDS-polyacrylamide gel electrophoresis (SDS-PAGE), and then transferred to a polyvinylidene fluoride (PVDF) membrane or a nitrocellulose membrane. A goat anti-proepithelin antibody (R&D Systems) was used as a primary antibody, a rabbit anti-goat IgG HRP-labeled antibody (ZYMED) was used as a secondary antibody, and ECL Blotting Detection Reagents (GE Healthcare) were used for detection of an HRP-labeled antibody.
The result obtained in this example (analytical result of a proepithelin protein by the Western blotting method) is shown in FIG. 2. In FIG. 2A, the vertical axis represents a relative value of an expression amount of a proepithelin protein, relative to an expression amount of a house keeping protein GADPH, and for each of a control (Control), the adipocyte in which insulin resistance was induced by TNFα (TNFα), and the adipocyte in which insulin resistance was induced by dexamethazone (Dex), the relative value is shown (mean value±standard deviation (mean±S.D.), n=4, p-value: **<0.05). […]

pAkt-Ser473 = assay: Effect of proepithelin protein on insulin signaling (Akt phosphorylation, Western blotting); details: matured 3T3-L1 adipocytes; proepithelin 10, 50, 100, 200 nM, cultured for 30 minutes, with or without 100 nM insulin; FIG. 6
Description: A matured adipocyte prepared according to the method of Reference Example 1 was added with 100 nM insulin and a proepithelin protein (AdipoGen, Inc.) and cultured for 30 minutes, or added with 100 nM insulin without addition of proepithelin protein and cultured for 30 minutes to prepare an adipocyte (+100 nM Insulin) stimulated by insulin. When the proepithelin protein was added, concentrations of the proepithelin protein were 10 nM, 50 nM, 100 nM, and 200 nM.
The obtained adipocyte stimulated by insulin was solubilized in an RIPA buffer {1% (W/w) Triton X-100, 1% sodium deoxycholate, 0.1% sodium dodecylsulfate, 150 mM sodium chloride, 20 mM Tris-hydrochloride (pH7.4), 2 mM EDTA, 10 μg/mL leupeptin, 10 μg/mL aprotinin, 5 mM mercaptoethanol, 1 mM PMSF, 1 mM Na3VO4, 10 μM sodium molybdate, 50 mM sodium fluoride}, and proteins were extracted.
The extracted proteins were subjected to the Western blotting method. Concretely, following separation by SDS-polyacrylamide gel electrophoresis (SOS-PAGE), the protein was transferred to a polyvinylidene fluoride (PVDF) membrane or a nitrocellulose membrane. […]

phosphorylated Akt = assay: Insulin signaling-suppressing action by constant presence of proepithelin protein (Akt phosphorylation, Western blotting); details: matured 3T3-L1 adipocytes; proepithelin 50, 100, 200 nM for 6 hours, then 100 nM insulin for 30 minutes; FIG. 7
Description: A matured adipocyte prepared according to the method of Reference Example 1 was added with a proepithelin protein (AdipoGen, Inc.) and incubated for 6 hours, and then added with 100 nM insulin and cultured for 30 minutes, or added with 100 nM insulin without addition of a proepithelin protein, and cultured for 30 minutes, to prepare an adipocytes stimulated by insulin (+100 nM Insulin). When the proepithelin protein was added, concentrations of the proepithelin protein were set at 50 nM, 100 nM, and 200 nM.
A matured adipocyte prepared according to the method of Reference Example 1 was added with a proepithelin protein (AdipoGen, Inc.) and cultured for 6 hours, or cultured for 30 minutes without addition of both insulin and a proepithelin protein, to prepare an adipocyte not stimulated with insulin (−Insulin). When the proepithelin protein was added, concentrations of the proepithelin protein were set at 50 nM, 100 nM, and 200 nM.
For each of the adipocyte stimulated by insulin (+100 nM Insulin) and the adipocyte not stimulated by insulin (−Insulin) obtained in the manner as described above, protein extraction and Western blotting were conducted in the same manner as in Example 6.

Molecule	relative intensity of proepithelin (aa297-309) NBS-labeled peptide, insulin resistance adipocyte relative to normal adipocyte (proepithelin (aa297-309)) [times]	expression amount of proepithelin protein relative to GADPH, increase versus control (proepithelin protein) [times]	upregulation of proepithelin protein with varied inducer concentration (proepithelin protein; concentrations of TNFα (ng/ml) and dexamethazone (nM) changed, FIG. 3)	phosphorylation level at 473th serine in the Akt protein (pAkt-Ser473)	phosphorylation level of an Akt protein after preliminary treatment (phosphorylated Akt)
C[C@@H]1C[C@H]2[C@@H]3CCC4=CC(=O)C=C[C@]4(C)[C@@]3(F)[C@@H](O)C[C@]2(C)[C@@]1(O)C(=O)CO [dexamethazone]	3.01	1.95	–	–	–
tumor necrosis factor α [TNFα]	1.66	1.83	dependent on the concentration	–	–
B1	–	–	–	increased with the concentration of added proepithelin	decreased
